The values that follow come from ChEMBL document CHEMBL1154628, “Discovery and optimization of substituted 1-(1-phenyl-1H-pyrazol-3-yl)methanamines as potent and efficacious type II calcimimetics” (J Med Chem, 2009).

Activity calls are given as the source filed them. The rule behind the calls is not given here.

For series [1], the target named is T1, Extracellular calcium-sensing receptor (Homo sapiens, UniProt P41180).
T1 sequence (P41180 whole entry): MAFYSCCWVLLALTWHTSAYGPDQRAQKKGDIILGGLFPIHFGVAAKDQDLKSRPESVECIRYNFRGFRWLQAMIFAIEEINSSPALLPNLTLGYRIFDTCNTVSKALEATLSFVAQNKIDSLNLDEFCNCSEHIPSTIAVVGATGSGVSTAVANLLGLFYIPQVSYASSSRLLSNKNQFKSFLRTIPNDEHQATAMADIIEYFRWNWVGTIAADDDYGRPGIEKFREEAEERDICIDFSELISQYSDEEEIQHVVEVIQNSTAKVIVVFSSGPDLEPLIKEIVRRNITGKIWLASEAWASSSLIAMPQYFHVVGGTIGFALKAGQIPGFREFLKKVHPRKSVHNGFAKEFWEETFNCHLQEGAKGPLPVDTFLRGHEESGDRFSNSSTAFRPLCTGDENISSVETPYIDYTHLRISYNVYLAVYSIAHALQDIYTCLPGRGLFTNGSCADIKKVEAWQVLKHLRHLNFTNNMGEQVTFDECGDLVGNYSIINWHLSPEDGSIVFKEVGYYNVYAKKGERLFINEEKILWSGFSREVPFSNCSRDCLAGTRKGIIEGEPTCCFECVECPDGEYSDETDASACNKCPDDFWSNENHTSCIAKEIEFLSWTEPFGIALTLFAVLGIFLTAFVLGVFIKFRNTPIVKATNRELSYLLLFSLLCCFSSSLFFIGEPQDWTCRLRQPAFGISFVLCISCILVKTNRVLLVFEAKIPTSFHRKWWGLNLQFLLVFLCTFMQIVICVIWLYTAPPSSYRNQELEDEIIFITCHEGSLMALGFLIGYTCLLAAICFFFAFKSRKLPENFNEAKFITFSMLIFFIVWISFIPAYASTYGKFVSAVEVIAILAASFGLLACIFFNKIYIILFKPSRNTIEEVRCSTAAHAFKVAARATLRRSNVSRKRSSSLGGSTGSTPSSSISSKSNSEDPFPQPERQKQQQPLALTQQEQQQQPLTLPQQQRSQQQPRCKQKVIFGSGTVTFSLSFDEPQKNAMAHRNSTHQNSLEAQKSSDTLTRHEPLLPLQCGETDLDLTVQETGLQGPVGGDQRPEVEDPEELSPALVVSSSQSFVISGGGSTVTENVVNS
Description: Activity at human CaSR expressed in HEK293 cells assessed as calcium release by FLIPR assay. The class given is functional, cell-based.

The subject of series [2] is Rattus norvegicus. Put plainly: Clearance in Sprague-Dawley rat at 0.5 mg/kg, iv. The series is classed as ADME, organism-based. The arrangement: dose 0.5 mg/kg, route intravenous. The note with it: in vivo.
A short description of series [3]: Volume of distribution at steady state in Sprague-Dawley rat at 0.5 mg/kg, iv. The series is classed as ADME, organism-based. More on the design: dose 0.5 mg/kg, route intravenous. The note with it: in vivo, read-out: Vdss.
A short description of series [4]: Mean residence time in Sprague-Dawley rat at 0.5 mg/kg, iv. The class given is ADME, organism-based. The arrangement: dose 0.5 mg/kg, route intravenous. The note with it: in vivo.
Series [5] relates to Rattus norvegicus. Description: AUC in Sprague-Dawley rat at 2 mg/kg, po. The series is classed as ADME, organism-based, Plasma. To be noted: in vivo. More on the design: dose 2 mg/kg, route oral.
Series [6] relates to Rattus norvegicus. Description: Oral bioavailability in Sprague-Dawley rat at 2 mg/kg. The class given is ADME, organism-based. The note with it: in vivo.
In series [7] the test system is Rattus norvegicus. Description: Inhibition of hyperparathyroidism in Sprague-Dawley rat pharmacodynamic model assessed as PTH levels at 3 mg/kg, po. The series is classed as functional.
Series [8] deals with Rattus norvegicus. Put plainly: Cmax in Sprague-Dawley rat at 2 mg/kg, po. The class given is ADME, organism-based. More on the design: dose 2 mg/kg, route oral. To be noted: in vivo.
Series [9] relates to Rattus norvegicus. Description: Inhibition of hyperparathyroidism in Sprague-Dawley rat pharmacodynamic model assessed as decrease in PTH levels at 30 mg/kg, po. The class given is functional, organism-based. More on the design: dose 30 mg/kg. The note with it: Thyroid gland.

Usually EC50 stands for the concentration giving half of the maximal effect. As for `CC[C@@H](N[C@H](C)c1ccccc1)c1ccn(-c2ccc(C(F)(F)F)cc2)n1`, the EC50 in [1] came to 1180 nM.

Consider `C[C@@H](NCc1nc(-c2ccccc2)cn1C)c1ccccc1`, for which, in [1], the EC50 is above 5000 nM.

With `COc1cc([C@@H](C)N[C@H](C)c2ccccc2)nn1-c1ccc(C(F)(F)F)cc1`, the EC50 in [1] was determined as 70 nM.

Consider `C[C@@H](NCc1ccn(-c2ccccc2)n1)c1ccccc1`, for which the EC50 in series [1] is 1580 nM.

Regarding `COc1cc([C@@H](C)N[C@H](C)c2cccc(Cl)c2)nn1-c1ccc(C(F)(F)F)cc1`, the EC50 in [1] came to 41 nM.

As to `C[C@@H](N[C@H](C)c1ccn(-c2ccc(C(F)(F)F)cc2)n1)c1cccc(F)c1`, in series [1], the EC50 was 148 nM.

Take `C[C@@H](N[C@H](C)c1ccn(-c2ccc(C(F)(F)F)cc2)n1)c1ccccc1`: the EC50 in [1] came to 233 nM.

Take `C[C@@H](N[C@H](C)c1ccn(-c2ccc(C(F)(F)F)cc2)n1)c1cccc(Cl)c1`: the EC50 in series [1] was found to be 92 nM.

The MRT is the average time that molecules of a dose stay in the body. One may read the AUC as concentration integrated over time. Read a high AUC as more exposure. Regarding `COc1cc([C@@H](C)N[C@H](C)c2cccc(Cl)c2)nn1-c1ccc(Br)cc1`, in [1], the EC50 was determined as 23 nM. Also, in the series on Rattus norvegicus [2], the CL came out at 21.7 mL/min/kg. Besides, in series [3], the Vd was found to be 7 L/kg. Further, in [4], the MRT was determined as 11.8 h. This compound gave an AUC with Rattus norvegicus [5] of 444 ng·h/mL. In the series with Rattus norvegicus [6], this compound registered an F of 24%. The Activity in the series with Rattus norvegicus [7] was below 3 pg/mL.

On to `COc1cc([C@@H](C)N[C@H](C)c2cccc(Cl)c2)nn1-c1ccc(C(=O)O)cc1`, for which, in [1], the concentration for a half-maximal effect (EC50) was determined as 1920 nM.

`C[C@@H](NCc1nc(-c2ccccc2)c[nH]1)c1ccccc1`: the EC50 in series [1] is above 5000 nM.

Consider `C[C@@H](NCc1nc(-c2ccccc2)cs1)c1ccccc1`, for which the EC50 in series [1] was above 5000 nM.

Take `COc1cc([C@@H](C)N[C@H](C)c2cccc(Cl)c2)nn1-c1ccc(-c2nnn[nH]2)cc1`: the EC50 in series [1] was above 5000 nM.

Regarding `C[C@@H](NCc1cnc(-c2ccccc2)s1)c1ccccc1`, in [1], the EC50 was above 5000 nM.

`COc1cc([C@@H](C)N[C@H](C)c2cccc(Cl)c2)nn1-c1cccc(Cl)c1`: the EC50 in series [1] was found to be 57 nM.

Regarding `C[C@@H](NCc1nc(-c2ccccc2)co1)c1ccccc1`, the EC50 in series [1] is above 5000 nM.

As usually defined, the Cmax is the peak of the concentration-time curve. As to `COc1cccc([C@@H](C)NCCCc2ccccc2Cl)c1` [TECALCET], the EC50 in series [1] came to 194 nM. The same compound showed a CL in the series with Rattus norvegicus [2] of 65 mL/min/kg. For the same compound, the Vd in series [3] came out at 6.8 L/kg. Further, the MRT in [4] turned out to be 1.74 h. In the series with Rattus norvegicus [5], this compound had an AUC of 22 ng·h/mL. In the series on Rattus norvegicus [8], this compound yielded a Cmax of 4.2 ng/mL. This compound also had a F in the series with Rattus norvegicus [6] of 5%. Also, in the series on Rattus norvegicus [9], the outcome was Active.

As for `CC(C)[C@@H](N[C@H](C)c1ccccc1)c1ccn(-c2ccc(C(F)(F)F)cc2)n1`, the EC50 in series [1] is 2340 nM.
